Assay results reported in article PMC8694143 (Microbiology Spectrum, 2021).
Residues, ends and D or L forms follow the SMILES beside them. No end group written: not given here. *: point of attachment. For = O=C*

How the values were obtained:
[1] = molecular target: SspA protease (Staphylococcus aureus, UniProt P0C1U8); assay: SspA protease treatment with HPLC/MS analysis; type: in vitro ADME; conditions: peptide 45 μL at 10 mg/mL + SspA 5 μL at 2 mg/mL, 100 mM HEPES pH 7.8, 37°C, 5 h
Experimental: (§1) SspA protease was resuspended at 2 mg/mL in 100 mM HEPES (pH 7.8). Peptide samples (45 μL at 10 mg/mL) were mixed with SspA (5 μL at 2 mg/mL) and incubated at 37°C for a total of 5 h. The antimicrobial activities of the reaction mixtures were assayed by spotting 5 μL (∼45 μg) of each on either M. luteus or S. aureus test organisms as described above. Additional samples were flash frozen in liquid nitrogen and stored at −80°C prior to high-pressure liquid chromatography-mass spectrometry (HPLC/MS) analysis.
HPLC/MS analyses were conducted to assess the proteolytic cleavage of STIPs by the SspA protease and catalogue peptides in the reaction mixtures. An Agilent Infinity II 1260 HPLC outfitted with a Phenomenex Lune C5 column (4.6 by 150 mm, 5 μm) was used to separate the peptide fragments using a binary solvent system consisting of solvent A (water, 0.05% formic acid) and solvent B (acetonitrile, 0.05% formic acid) operating at 0.7 mL/min. A 5-μL volume (∼4.5 μg) of each sample was injected at 10% solvent B, followed by a two-step gradient elution from 10% to 50% solvent B in 30 min, then 50% to 100% B in 10 min. The HPLC was coupled to an Advion CMS(L) single quadrupole mass detector through an electrospray ionization source, and ions were detected between 100 and 2,000 m/z. Low temperature and fragmentation settings were used: capillary temperature 135°C, capillary voltage 120 V, source voltage offset 20 V, source gas temperature 135°C, and electrospray ionization (ESI) voltage 3,500 V.

[2] = Circular dichroism spectroscopy; type: physicochemical; conditions: for α-Helical content (%): CD, 50% TFE (vol/vol), peptide 0.2 mg/mL, room temperature
Experimental: Peptides were dissolved in ultrapure water or 50% TFE (vol/vol) at a concentration of 0.2 mg/mL for spectroscopy. Spectra of samples in a 1 mm pathlength quartz cuvette were recorded from 180 to 260 nm at 0.5 nm steps using an Applied Photophysics Chirascan Plus CD spectrophotometer operating at room temperature.

[3] = system: MRSA ATCC BAA-1683; assay: MIC determination in broth; type: cell-based, Staphylococcus aureus; conditions: cation-adjusted MH broth, 37°C, 16 h
How it was run: (§2)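 Broth microdilution in cation-adjusted Mueller-Hinton broth, inoculum ~10^5 CFU/mL (OD 5 × 10^−4), with peptides in 2-fold dilution series. Plates incubated without shaking at 37°C for Staphylococcus strains.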

[4] = system: MRSA ATCC BAA-42; assay: MIC determination in broth; type: cell-based, Staphylococcus aureus; conditions: cation-adjusted MH broth, 37°C, 16 h
How it was run: as §2

[5] = system: MRSA ATCC BAA-41; assay: MIC determination in broth; type: cell-based, Staphylococcus aureus; conditions: cation-adjusted MH broth, 37°C, 16 h
How it was run: as §2

[6] = system: MRSA ATCC BAA-2313; assay: MIC determination in broth; type: cell-based, Staphylococcus aureus; conditions: cation-adjusted MH broth, 37°C, 16 h
How it was run: as §2

[7] = system: MRSA ATCC 33592; assay: MIC determination in broth; type: cell-based, Staphylococcus aureus; conditions: cation-adjusted MH broth, 37°C, 16 h
How it was run: as §2

[8] = system: S. aureus ATCC 29213; assay: MIC determination in broth; type: cell-based, Staphylococcus aureus; conditions: cation-adjusted MH broth, 37°C, 16 h
How it was run: as §2

[9] = system: MRSA ATCC BAA-2094; assay: MIC determination in broth; type: cell-based, Staphylococcus aureus; conditions: cation-adjusted MH broth, 37°C, 16 h
How it was run: as §2

[10] = system: MRSA ATCC BAA-44; assay: MIC determination in broth; type: cell-based, Staphylococcus aureus; conditions: cation-adjusted MH broth, 37°C, 16 h
How it was run: as §2

[11] = system: M. luteus ATCC 4698; assay: MIC determination in broth; type: cell-based, Micrococcus luteus; conditions: cation-adjusted MH broth, ~10^5 CFU/mL, 30°C, 48 h
Experimental: M. luteus ATCC 4698, S. aureus ATCC 29213, a panel of 7 MRSA (ATCC MP-2) strains, which includes ATCC BAA-41, BAA-42, BAA-44, BAA-1683, BAA-2094, BAA-2313, and 33592, and a series of additional bacterial isolates from human and veterinary cases were used in this study (Table S6). Bacterial strains were routinely grown in lysogeny broth (LB: 10 g/L tryptone, 5 g/L yeast extract, 10 g/L NaCl) at 30°C (M. luteus) or 37°C (Staphylococcus spp.) prior to use in specific experiments described below.
The MICs were measured for bioactive peptides identified from the initial screen. Cation-adjusted Mueller-Hinton (MH) broth was used as the growth medium for MIC determination experiments. Bacterial cultures were diluted to an OD of 5 × 10^−4 (∼10^5 CFU/mL) in 200 μL MH broth mixed with peptides in a 2-fold dilution series arrayed in 96-well plates. Plates were incubated without shaking at 30 or 37°C depending on the organism.

[12] = system: S. aureus ATCC 29213; assay: Spot-on-lawn assay; type: cell-based, Staphylococcus aureus; conditions: 50 μg peptide (about 45 μg of SspA reaction mixture) spotted on inoculated soft agar, 37°C, 16 to 48 h
Experimental: Peptides (≥70% purity) were resuspended in sterile double distilled water (ddH2O) at a concentration of 10 mg/mL (gross weight), and M. luteus and S. aureus ATCC 29213 were used as indicator strains. To prepare test organisms, the optical density (OD) of overnight cultures was measured and the organisms were diluted to an initial OD of 0.05 (S. aureus) or 0.1 (M. luteus) in soft nutrient agar (0.4% wt/vol) at 50°C. Next, 3 mL of soft agar containing a test organism was overlaid on solid LB agar (1.5% wt/vol). A total of 50 μg of each peptide was spotted on the inoculated surface and plates were incubated for 16 to 48 h at 37 or 30°C.
as §1

[13] = system: sheep red blood cells; assay: Hemolytic activity assay; type: cell-based; conditions: peptides at 100 μg/mL, 1 h, relative to the δ-toxin and other STIPs
Experimental: Thirty-five percent defibrinated sheep’s blood (vol/vol) was centrifuged for 5 min at 4,000 rpm to harvest red blood cells. The cells were washed three times with PBS and harvested by centrifugation prior to dilution to 15% (vol/vol) in PBS in order to evaluate peptide-mediated hemolysis. The assay was performed in 96-well microtiter plates using peptides at 100 μg/mL in a 200-μL volume. […] was used as a negative control and Triton X-100 (0.1% vol/vol) was used as a positive control for complete lysis. After 1 h of incubation, the 96-well microtiter plates were centrifuged at 4,500 rpm for 10 min and a 150 μL aliquot of the supernatant from each sample was carefully transferred to a new 96-well plate. The absorbance of the supernatant was then measured at 540 nm using a Varioskan Lux plate reader (Thermo Scientific). The hemolytic activity is reported relative to complete lysis (%) obtained using Triton X-100. Experiments were performed in triplicate, and statistical differences in hemolysis were measured using an unpaired two-tailed Student’s t test to compare the STIPs and deformylated δ-toxin to the formylated δ-toxin.

[14] = δ-toxins, highest conc. tested 200 μg/mL
[15] = STIP3 variants, highest conc. tested 100 μg/mL, ~10^5 CFU/mL, 2-fold dilution series

SspA protease, sequence (P0C1U8 69-336): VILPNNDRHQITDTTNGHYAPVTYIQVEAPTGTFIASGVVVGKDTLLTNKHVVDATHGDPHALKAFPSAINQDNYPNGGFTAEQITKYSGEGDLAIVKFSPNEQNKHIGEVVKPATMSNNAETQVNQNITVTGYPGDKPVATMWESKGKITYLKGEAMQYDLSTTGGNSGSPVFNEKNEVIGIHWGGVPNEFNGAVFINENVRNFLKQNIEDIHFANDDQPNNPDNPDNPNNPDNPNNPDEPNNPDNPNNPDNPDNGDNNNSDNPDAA

Molecule: CC[C@H](C)[C@H](NC(=O)[C@H](Cc1c[nH]c2ccccc12)NC(=O)[C@H](CCCCN)NC(=O)[C@@H](NC(=O)[C@H](CC(C)C)NC(=O)CNC(=O)CNC(=O)[C@@H](NC(=O)[C@@H](NC(=O)[C@H](CCC(=O)O)NC(=O)[C@@H](NC(=O)[C@@H](NC(=O)[C@H](CC(=O)O)NC(=O)[C@H](CCCCN)NC(=O)[C@@H](NC(=O)[C@H](CCSC)NC=O)[C@@H](C)O)[C@@H](C)CC)C(C)C)[C@@H](C)O)C(C)C)C(C)C)C(=O)N[C@@H](CC(C)C)C(=O)N[C@@H](CC(=O)O)C(=O)N[C@H](C(=O)N[C@H](C(=O)N[C@@H](CCCCN)C(=O)N[C@@H](CCCCN)C(=O)N[C@@H](Cc1ccccc1)C(=O)N[C@@H](C)C(=O)O)C(C)C)[C@@H](C)O [δ-toxin] (For-MTKDIVETVGGLVKWILDTVKKFA-OH; C-terminus assumed)
- Susceptibility to SspA cleavage [1]: no SspA cleavage was observed
- α-Helical content (%) [2]: 88%
- Secondary structure by CD ([2]; water and 50% trifluoroethanol (vol/vol), 0.2 mg/mL): α-helical in both solvents
- MIC, S. aureus ATCC BAA 1683 (SCCmec IV) [3, 14]: > (no inhibition was observed at 100 μg/mL for the STIP3 variants or 200 μg/mL for the δ-toxins)
- MIC, S. aureus ATCC BAA 42 (SCCmec VI) [4, 14]: > (no inhibition was observed at 100 μg/mL for the STIP3 variants or 200 μg/mL for the δ-toxins)
- MIC, S. aureus ATCC BAA 41 (SCCmec II) [5, 14]: > (no inhibition was observed at 100 μg/mL for the STIP3 variants or 200 μg/mL for the δ-toxins)
- MIC, S. aureus ATCC BAA 2313 (SCCmec XI) [6, 14]: > (no inhibition was observed at 100 μg/mL for the STIP3 variants or 200 μg/mL for the δ-toxins)
- MIC, S. aureus ATCC 33592 (SCCmec III) [7, 14]: > (no inhibition was observed at 100 μg/mL for the STIP3 variants or 200 μg/mL for the δ-toxins)
- MIC, S. aureus ATCC 29213 [8, 14]: > (no inhibition was observed at 100 μg/mL for the STIP3 variants or 200 μg/mL for the δ-toxins)
- MIC, S. aureus ATCC BAA 2094 (SCCmec V) [9, 14]: > (no inhibition was observed at 100 μg/mL for the STIP3 variants or 200 μg/mL for the δ-toxins)
- MIC, S. aureus ATCC BAA 44 (SCCmec I) [10, 14]: > (no inhibition was observed at 100 μg/mL for the STIP3 variants or 200 μg/mL for the δ-toxins)

Molecule: MTKDIVETVGGLVKWILDTVKKFA [δ-toxin (df), deformylated full-length S. auricularis δ-toxin, reference compound]
- Susceptibility to SspA cleavage [1]: susceptible to SspA cleavage
- α-Helical content (%) [2]: 87%
- MIC, S. aureus ATCC BAA 1683 (SCCmec IV) [3, 14]: > (no inhibition was observed at 100 μg/mL for the STIP3 variants or 200 μg/mL for the δ-toxins)
- MIC, S. aureus ATCC BAA 42 (SCCmec VI) [4, 14]: > (no inhibition was observed at 100 μg/mL for the STIP3 variants or 200 μg/mL for the δ-toxins)
- MIC, S. aureus ATCC BAA 41 (SCCmec II) [5, 14]: > (no inhibition was observed at 100 μg/mL for the STIP3 variants or 200 μg/mL for the δ-toxins)
- MIC, S. aureus ATCC BAA 2313 (SCCmec XI) [6, 14]: > (no inhibition was observed at 100 μg/mL for the STIP3 variants or 200 μg/mL for the δ-toxins)
- MIC, S. aureus ATCC 33592 (SCCmec III) [7, 14]: > (no inhibition was observed at 100 μg/mL for the STIP3 variants or 200 μg/mL for the δ-toxins)
- MIC, S. aureus ATCC 29213 [8, 14]: > (no inhibition was observed at 100 μg/mL for the STIP3 variants or 200 μg/mL for the δ-toxins)
- MIC, S. aureus ATCC BAA 2094 (SCCmec V) [9, 14]: > (no inhibition was observed at 100 μg/mL for the STIP3 variants or 200 μg/mL for the δ-toxins)
- MIC, S. aureus ATCC BAA 44 (SCCmec I) [10, 14]: > (no inhibition was observed at 100 μg/mL for the STIP3 variants or 200 μg/mL for the δ-toxins)

Molecule: TVAGLVKWILDTVKKFA [G3A]
- MIC, M. luteus [11]: 50 µg/mL
- Inhibition of S. aureus growth, spot-on-lawn [12]: inhibition observed on an agar surface

Molecule: TVGALVKWILDTVKKFA [G4A]
- MIC, M. luteus [11]: 12.5 µg/mL
- Inhibition of S. aureus growth, spot-on-lawn [12]: inhibition observed on an agar surface

Molecule: TVGGLVKWILATVKKFA-NH2 [STIP3-28, rationally designed STIP3-1 variant, C-terminal amide]
- Change of hemolytic activity [13]: increase in hemolysis
- MIC, S. aureus ATCC BAA 1683 (SCCmec IV) [3, 15]: 12.5 µg/mL
- MIC, S. aureus ATCC BAA 42 (SCCmec VI) [4, 15]: 12.5 µg/mL
- MIC, S. aureus ATCC BAA 41 (SCCmec II) [5, 15]: 12.5 µg/mL
- MIC, S. aureus ATCC BAA 2313 (SCCmec XI) [6, 15]: 12.5 µg/mL
- MIC, S. aureus ATCC 33592 (SCCmec III) ([7]; Table S5, STIP3 variants, highest conc. tested 100 μg/mL, ~10^5 CFU/mL, 2-fold dilution series): 6.25 µg/mL
- MIC, S. aureus ATCC 29213 [8, 15]: 25 µg/mL
- MIC, S. aureus ATCC BAA 2094 (SCCmec V) [9, 15]: 6.25 µg/mL
- MIC, S. aureus ATCC BAA 44 (SCCmec I) [10, 15]: 12.5 µg/mL

Molecule: TVGGLVKWILDTVAKFA [K14A]
- MIC, M. luteus [11]: 12.5 µg/mL
- Inhibition of S. aureus growth, spot-on-lawn [12]: inhibition observed on an agar surface

Molecule: TVGGLVKWILDTVKAFA [K15A]
- MIC, M. luteus [11]: 25 µg/mL
- Inhibition of S. aureus growth, spot-on-lawn [12]: inhibition observed on an agar surface
